Activity calls are given as the source filed them. No cut-off for these calls is given here.
How the values were obtained:
HL-60 [1] = assay: Upregulation of p21 protein expression in human HL-60 cells overexpressing p53-V272M mutant pretreated for 1 hr followed by culturing in fresh medium for 16 hrs by Western blot analysis; format: functional, cell-based
U-937 [2] = assay: Inhibition of colony formation in human U-937 cells harboring p53-V272M mutant at 0.5 to 8 uM pretreated for 1 hr followed by culturing in fresh medium and measured on day 14 by crystal violet staining based assay; format: functional, cell-based; settings: dose 0.5-8 µM
[3] = biological target: T1, PML-RARalpha (Homo sapiens) (UniProt P10276+P29590); assay: Induction of PML/RARalpha degradation in human NB4 cells assessed as downregulation of FCGR1B mRNA expression incubated for 1 hrs followed by replacement with fresh culture medium for 6 hrs by RT-qPCR analysis; format: cell-based; settings: dose 0.3-3 µM
T1 sequence (P10276 whole entry, looked up): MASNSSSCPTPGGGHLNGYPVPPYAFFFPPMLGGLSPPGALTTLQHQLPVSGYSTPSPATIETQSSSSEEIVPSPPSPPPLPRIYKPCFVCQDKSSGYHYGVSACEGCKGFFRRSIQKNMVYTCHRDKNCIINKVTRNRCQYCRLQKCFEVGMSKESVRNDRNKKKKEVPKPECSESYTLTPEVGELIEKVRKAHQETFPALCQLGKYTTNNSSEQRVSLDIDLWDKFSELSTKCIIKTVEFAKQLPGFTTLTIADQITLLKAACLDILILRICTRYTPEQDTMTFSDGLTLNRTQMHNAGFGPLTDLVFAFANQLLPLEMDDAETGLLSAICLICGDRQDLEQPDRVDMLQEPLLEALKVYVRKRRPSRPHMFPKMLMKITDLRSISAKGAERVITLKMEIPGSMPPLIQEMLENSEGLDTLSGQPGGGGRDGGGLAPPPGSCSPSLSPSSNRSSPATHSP
T1 sequence (P29590 whole entry, looked up): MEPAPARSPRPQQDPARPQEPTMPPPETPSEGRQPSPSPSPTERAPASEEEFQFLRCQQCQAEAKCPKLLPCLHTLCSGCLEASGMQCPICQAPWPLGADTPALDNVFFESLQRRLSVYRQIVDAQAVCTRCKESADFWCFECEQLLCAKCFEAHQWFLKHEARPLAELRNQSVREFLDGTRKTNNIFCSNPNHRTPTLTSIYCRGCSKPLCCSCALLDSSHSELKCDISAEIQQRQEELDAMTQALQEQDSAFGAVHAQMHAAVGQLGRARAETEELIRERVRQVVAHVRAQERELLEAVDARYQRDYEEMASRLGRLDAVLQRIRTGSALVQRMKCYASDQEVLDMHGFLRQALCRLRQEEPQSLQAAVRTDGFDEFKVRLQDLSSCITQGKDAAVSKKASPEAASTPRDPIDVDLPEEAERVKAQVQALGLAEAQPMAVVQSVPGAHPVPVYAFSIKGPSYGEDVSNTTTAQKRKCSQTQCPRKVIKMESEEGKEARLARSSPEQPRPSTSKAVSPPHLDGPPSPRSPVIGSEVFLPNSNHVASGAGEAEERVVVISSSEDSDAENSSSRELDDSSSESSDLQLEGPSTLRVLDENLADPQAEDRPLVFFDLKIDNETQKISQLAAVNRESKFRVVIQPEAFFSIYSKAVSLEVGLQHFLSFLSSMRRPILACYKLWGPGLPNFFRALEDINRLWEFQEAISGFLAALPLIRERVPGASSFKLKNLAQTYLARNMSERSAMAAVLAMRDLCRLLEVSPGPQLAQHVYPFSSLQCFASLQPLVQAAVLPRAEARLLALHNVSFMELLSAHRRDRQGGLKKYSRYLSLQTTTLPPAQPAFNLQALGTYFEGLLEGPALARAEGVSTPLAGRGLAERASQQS

[4] = biological target: T1, PML-RARalpha (Homo sapiens); assay: Induction of PML/RARalpha degradation in human NB4 cells assessed as downregulation of P2RY2 mRNA expression incubated for 1 hrs followed by replacement with fresh culture medium for 6 hrs by RT-qPCR analysis; format: cell-based; settings: dose 0.3-3 µM
[5] = Clearance in ICR mouse at 10 mg/kg, iv measured upto 24 hrs by ICP-MS analysis relative to hepatic blood flow; format: ADME, organism-based; settings: in vivo
[6] = Drug uptake in human HepG2 cells assessed as arsenic localization in cytoplasm at 10 uM incubated for 1 hr by ICP-MS analysis; format: ADME, cell-based; settings: hepg2, 1 h
NCI-H1299 [7] = assay: Inhibition of colony formation in human NCI-H1299 cells harboring p53-V272M mutant at 2 to 32 uM pretreated for 1 hr followed by culturing in fresh medium and measured on day 7 by crystal violet staining based assay; format: functional, cell-based; settings: dose 2-32 µM
HL-60 [8] = assay: Upregulation of PUMA mRNA expression in human HL-60 cells overexpressing p53-V272M mutant at 2 uM pretreated for 1 hr followed by culturing in fresh medium for 8 hrs by RT-qPCR analysis; format: functional, cell-based
U-937 [9] = assay: Antitumor activity against GFP-tagged human U-937 cells harboring p53 V272M mutant xenografted in M-NSG mouse assessed as delay in spleen swelling at 25 mg/kg, ip administered for 9 days starting from 7 days post inoculation and measured on day 9 by FACS analysis; format: functional, organism-based; settings: time 9.0 day
U-937 [10] = assay: Induction of apoptosis in human U-937 cells harboring p53-V272M mutant assessed as increase in early apoptotic cells at 0.5 to 8 uM pretreated for 1 hr followed by culturing in fresh medium for 24 hrs by Annexin V-FITC/7AAD staining based flow cytometry analysis; format: functional, cell-based; settings: dose 0.5-8 µM
[11] = biological target: T1, PML-RARalpha (Homo sapiens); assay: Induction of PML/RARalpha degradation in human NB4 cells assessed as appearance of large PML speckles characteristic of normal nuclear bodies at 3 uM incubated for 1 hrs followed by replacement with fresh culture medium and measured after 0.5 to 24 hrs by immunofluorescence analysis; format: cell-based
NCI-H1299 [12] = assay: Upregulation of MDM2 mRNA expression in human NCI-H1299 cells overexpressing p53-V272M mutant at 2 uM pretreated for 1 hr followed by culturing in fresh medium for 8 hrs by RT-qPCR analysis; format: functional, cell-based
U-937 [13] = assay: Induction of senescence in human U-937 cells overexpressing p53-V272M mutant assessed as upregulation of PML gene expression by RT-qPCR analysis; format: functional, cell-based
[14] = test system: Cellular tumor antigen p53 (Homo sapiens), P04637 [V272M]; assay: Restoration of p53-V272M mutant transcriptional activity on PUMA promoter in human NCI-H1299 cells at 2.5 to 10 uM pretreated with methyl-beta-cyclodextrin for 30 mins followed by compound addition for 10 mins and further incubation in fresh medium for 24 hrs by firefly/renilla based luciferase reporter assay; format: cell-based; settings: dose 2.5-10 µM
HL-60 [15] = assay: Upregulation of CDKN1A mRNA expression in human HL-60 cells overexpressing p53-V272M mutant at 2 uM pretreated for 1 hr followed by culturing in fresh medium for 8 hrs by RT-qPCR analysis; format: functional, cell-based
HL-60 [16] = assay: Inhibition of colony formation in human HL-60 cells harboring p53-V272M mutant at 0.2 to 3.2 uM pretreated for 1 hr followed by culturing in fresh medium and measured on day 18 by crystal violet staining based assay; format: functional, cell-based; settings: dose 0.2-3.2 µM
U-937 [17] = assay: Induction of cell cycle arrest in human U-937 cells harboring p53-V272M mutant at 0.5 to 8 uM pretreated for 1 hr followed by culturing in fresh medium for 24 hrs by RNase/PI staining based flow cytometry analysis; format: functional; settings: dose 0.5-8 µM
U-937 [18] = assay: Upregulation of PUMA mRNA expression in human U-937 cells overexpressing p53-V272M mutant pretreated for 1 hr followed by culturing in fresh medium for 4 hrs by RT-qPCR analysis; format: functional, cell-based
[19] = Drug accumulation in ICR mouse lungs at 10 mg/kg, iv measured upto 24 hrs by ICP-MS analysis; format: ADME, organism-based, Lung; settings: in vivo
HL-60 [20] = assay: Upregulation of PUMA protein expression in human HL-60 cells overexpressing p53-V272M mutant pretreated for 1 hr followed by culturing in fresh medium for 16 hrs by Western blot analysis; format: functional, cell-based
U-937 [21] = assay: Upregulation of MDM2 protein expression in human U-937 cells overexpressing p53-V272M mutant at 0.1 to 0.5 uM pretreated for 1 hr followed by culturing in fresh medium for 16 hrs by Western blot analysis; format: functional, cell-based; settings: dose 0.1-0.5 µM
[22] = Drug uptake in human HepG2 cells assessed as arsenic localization in nucleus at 10 uM incubated for 1 hr by ICP-MS analysis; format: ADME, cell-based; settings: hepg2, 1 h
[23] = Drug uptake in human U-937 cells harboring p53-V272M mutant at 10 uM measured after 10 mins by ICP-MS analysis; format: ADME, cell-based; settings: u-937, 10 min
U-937 [24] = assay: Induction of senescence in human U-937 cells overexpressing p53-V272M mutant assessed as upregulation of CDKN1A gene expression by RT-qPCR analysis; format: functional, cell-based
U-937 [25] = assay: Induction of cell cycle arrest in human U-937 cells overexpressing p53-V272M mutant assessed as upregulation of GADD45A gene expression by RT-qPCR analysis; format: functional, cell-based
[26] = biological target: T1, PML-RARalpha (Homo sapiens); assay: Induction of PML/RARalpha degradation in human NB4 cells assessed as residual protein level at 0.3 uM incubated for 1 hrs followed by replacement with fresh culture medium and measured after 16 hrs by Western blot analysis (reference value: 1); format: cell-based
[27] = Plasma stability in monkey assessed as half life at […] measured upto 120 mins by LC-MS analysis; format: ADME, cell-free, Macaca mulatta; settings: rhesus monkey
U-937 [28] = assay: Induction of cell cycle arrest in human U-937 cells overexpressing p53-V272M mutant assessed as upregulation of p21 encoding CDKN1A gene expression by RT-qPCR analysis; format: functional, cell-based
[29] = biological target: T1, PML-RARalpha (Homo sapiens); assay: Induction of PML/RARalpha degradation in human NB4 cells assessed as decrease in micropunctuates at 3 uM incubated for 1 hrs followed by replacement with fresh culture medium and measured after 0.5 to 24 hrs by immunofluorescence analysis; format: cell-based
NCI-H1299 [30] = assay: Upregulation of PUMA mRNA expression in human NCI-H1299 cells overexpressing p53-V272M mutant at 2 uM pretreated for 1 hr followed by culturing in fresh medium for 8 hrs by RT-qPCR analysis; format: functional, cell-based
[31] = Plasma stability in mouse assessed as half life at […] measured upto 120 mins by LC-MS analysis; format: ADME, cell-free

For `CC(=O)OC[C@H]1O[C@@H](S[As]2SCCS2)[C@H](OC(C)=O)[C@@H](OC(C)=O)[C@@H]1OC(C)=O`, the Activity (HL-60 [1]) was “Active”, the inhibition (U-937 [2]) was “Active” and the Activity [3] was “Dose-Dependent Effect”. The Activity [4] was “Dose-Dependent Effect”, the CLH [5] was 13.7% and the Drug uptake [6] was “Active”. The inhibition (NCI-H1299 [7]) was “Active”, the Activity (HL-60 [8]) was “Active” and the Activity (U-937 [9]) was “Active”. The Activity (U-937 [10]) was “Active”, the Activity [11] was “Active” and the Activity (NCI-H1299 [12]) was “Active”. For the same compound, the Activity (U-937 [13]) was “inactive”, the Activity [14] was “inactive” and the Activity (HL-60 [15]) was “Active”. The inhibition (HL-60 [16]) was “Active”, the Activity (U-937 [17]) was “Active” and the Activity (U-937 [18]) was “Active”. The Drug uptake [19] was “Active”, the Activity (HL-60 [20]) was “Active” and the Activity (U-937 [21]) was “Active”. For the same compound, the Drug uptake [22] was “Active”, the Drug uptake [23] was “Active” and the Activity (U-937 [24]) was “Active”. For the same compound, the Activity (U-937 [25]) was “Active”, the Activity [26] was 0.42 and the half-life [27] was 11.3 min. For the same compound, the Activity (U-937 [28]) was “Active”, the Activity [29] was “Active” and the Activity (NCI-H1299 [30]) was “Active”. It also gave a half-life [31] of 13.4 min.

Source: ChEMBL document CHEMBL5375988, “AcGlcAs: A Novel P53-Targeting Arsenical with Potent Cellular Uptake and Cancer Cell Selectivity” (J Med Chem, 2023)
